{"source": "paper PMC8704709", "about": "“Improved Anticancer Activities of a New Pentafluorothio-Substituted Vorinostat-Type Histone Deacetylase Inhibitor” (Pharmaceuticals, 2021)", "assay_in_all_cases": "IC50 by Annexin-V/7AAD dual staining, flow cytometry", "type_in_all_cases": "cell-based", "key": {"[1]": {"system": "Hut78 cells", "conditions": "Homo sapiens, as determined after 48 h, means ± SEM, n ≥ 3, read-out: Growth inhibitory activity IC50, Hut78", "procedure": "(§1) Stock solutions (10 mM) prepared by dissolution in DMSO were stored at −20 °C. Working solutions were always freshly prepared before each experiment by dilution of stock solution with medium. The final DMSO concentration never exceeded 0.25%. Treatment-induced changes in cell number were determined by crystal violet (N-hexamethylpararosaniline from Sigma Aldrich) staining. 1000 cells/well (DU145) or 1500 cells/well (Hep-G2) were seeded in 96-well plates and maintained for adherence in an incubator (37 °C, 5% CO2, humidified atmosphere) for 48 h prior to the beginning of the treatment. […] Thereafter, the cells were fixed with 1% glutaraldehyde and stained with 0.1% crystal violet. The unbound dye was removed by rinsing with water. Bound crystal violet was solubilized with 0.2% Triton X-100 (Sigma-Aldrich). Light extinction of crystal violet, which increases linearly with the cell number, was analyzed at 570 nm using an ELISA-Reader (Dynex Technologies, Denkendorf, Germany). For T-cell leukemia/lymphoma cell lines apoptosis was determined using dual staining for Annexin-V and 7AAD via flow cytometry."}, "[2]": {"system": "Jurkat cells", "conditions": "Homo sapiens, as determined after 48 h, means ± SEM, n ≥ 3, read-out: Growth inhibitory activity IC50, Jurkat", "procedure": "as §1"}, "[3]": {"system": "SMZ1 cells", "conditions": "Homo sapiens, as determined after 48 h, means ± SEM, n ≥ 3, read-out: Growth inhibitory activity IC50, SMZ1", "procedure": "as §1"}, "[4]": {"system": "SupT11 cells", "conditions": "Homo sapiens, as determined after 48 h, means ± SEM, n ≥ 3, read-out: Growth inhibitory activity IC50, SupT11", "procedure": "as §1"}}}
{"smiles": "O=C(CCCCCCC(=O)Nc1ccc(S(F)(F)(F)(F)F)cc1)NO", "note": "[SF5-SAHA]", "values": [{"measurement": "IC50", "setting": "[1]", "result": "2400 ± 400", "unit": "nM"}, {"measurement": "IC50", "setting": "[2]", "result": "760 ± 60", "unit": "nM"}, {"measurement": "IC50", "setting": "[3]", "result": "1580 ± 290", "unit": "nM"}, {"measurement": "IC50", "setting": "[4]", "result": "3080 ± 330", "unit": "nM"}]}
